According to US12331044B2, “Inhibitors of histone deacetylase useful for the treatment or prevention of HIV infection” (Merck Sharp & Dohme LLC, priority 2018, dated 2025):
pIC50: −log10 of the molar value. Read-outs that look alike come from different tables or passages of the source.

Key:
HDAC6 = HDAC6 (Homo sapiens (Human), UniProt Q9UBN7)
Protocol: The histone deacetylase activities of HDAC1, HDAC2, HDAC3, HDAC6, and HDAC8 were measured in modified FLUOR DE LYS assays in 384-well format. In this assay, HDAC enzymes are initially incubated with an F-acetyl (or -trifluoroacetyl)-L-lysine-containing substrate with a C-terminal amide having aminomethylcoumarin as the amine component. HDACs cleave the F-acetyl group, rendering the resulting product susceptible to AMC cleavage by trypsin. The released AMC is then detected by its fluorescence. […] All steps were performed at room temperature (23° C.). The assay was performed by pre-incubating serial dilutions of test compounds with the target HDAC prior to initiation with substrate. […] Final conditions used for each assay were: 1. […] The reactions were stopped and developed by addition of 30 ul of HDAC developer solution containing a saturating level of HDAC inhibitor as follows: 1. […] For data analysis, background subtracted product (fluorescence) vs. time data for each inhibitor concentration was fitted using a 4-parameter fit.

KARN cells (Jurkat 2C4) = experiment: cells; settings: Homo sapiens
Protocol: KARN Assay Cell Maintenance
KARN cells (Jurkat 2C4) were licensed from the laboratory of Dr. John Karn, Case Western Reserve University, School of Medicine. […] An atmosphere of 5% CO2 and 90% humidity was used for all culture work.
These flasks were returned to the incubator.
The cells were gently resuspended in assay media (30 ml) and pelleted again. […] The cells were counted using the ViCell (Beckman Coulter) and diluted as necessary. […] The plates were covered and returned to the incubator prior to compound addition.
The reference compounds, DMSO and SAHA were then added to the compound plate. […] The final high concentration for SAHA and the test compounds in the assays was 40 μM. The final DMSO concentration in all wells was 0.4%. The minimal induction reference compound used was DMSO and the maximal induction reference compound used was SAHA (2 μM final concentration in the assay).
Day 3: The luciferase detection reagent was prepared by transferring the contents of one bottle of Steady-Glo buffer to one bottle of Steady-Glo aubstrate (Steady-Glo Luciferase Assay System, Promega, catalog number E2520), followed by gently mixing until the substrate was thoroughly dissolved and the solution was equilibrated to room temperature. […] The Steady-Glo Reagent was added to the plates (30 μl/well), which were then covered with a black lid and incubated for 10 minutes at room temperature. The plates were then read for luminescence on an Envision (Perkin Elmer) using the ultrasensitive mode (US LUM), 0.1 counts per second and 384-well aperture. Luminescence counts in the DMSO reference wells were considered as 0% induction, while those in the 2 μM SAHA reference wells were considered as 100% induction. Dose response curves were plotted as test compound concentration (X-axis) vs. percent activation (Y-axis) using a 4-parameter fit based on the Levenberg-Marquardt algorithm.

[1] = read-out: Karn EC50 nM 0.1% NHS, 0.1% normal human serum, luciferase induction, 2 μM SAHA = 100%
[2] = read-out: Karn EC50 nM 5% NHS, 5% normal human serum, luciferase induction, 2 μM SAHA = 100%

Sequence of HDAC6 (Q9UBN7 whole entry): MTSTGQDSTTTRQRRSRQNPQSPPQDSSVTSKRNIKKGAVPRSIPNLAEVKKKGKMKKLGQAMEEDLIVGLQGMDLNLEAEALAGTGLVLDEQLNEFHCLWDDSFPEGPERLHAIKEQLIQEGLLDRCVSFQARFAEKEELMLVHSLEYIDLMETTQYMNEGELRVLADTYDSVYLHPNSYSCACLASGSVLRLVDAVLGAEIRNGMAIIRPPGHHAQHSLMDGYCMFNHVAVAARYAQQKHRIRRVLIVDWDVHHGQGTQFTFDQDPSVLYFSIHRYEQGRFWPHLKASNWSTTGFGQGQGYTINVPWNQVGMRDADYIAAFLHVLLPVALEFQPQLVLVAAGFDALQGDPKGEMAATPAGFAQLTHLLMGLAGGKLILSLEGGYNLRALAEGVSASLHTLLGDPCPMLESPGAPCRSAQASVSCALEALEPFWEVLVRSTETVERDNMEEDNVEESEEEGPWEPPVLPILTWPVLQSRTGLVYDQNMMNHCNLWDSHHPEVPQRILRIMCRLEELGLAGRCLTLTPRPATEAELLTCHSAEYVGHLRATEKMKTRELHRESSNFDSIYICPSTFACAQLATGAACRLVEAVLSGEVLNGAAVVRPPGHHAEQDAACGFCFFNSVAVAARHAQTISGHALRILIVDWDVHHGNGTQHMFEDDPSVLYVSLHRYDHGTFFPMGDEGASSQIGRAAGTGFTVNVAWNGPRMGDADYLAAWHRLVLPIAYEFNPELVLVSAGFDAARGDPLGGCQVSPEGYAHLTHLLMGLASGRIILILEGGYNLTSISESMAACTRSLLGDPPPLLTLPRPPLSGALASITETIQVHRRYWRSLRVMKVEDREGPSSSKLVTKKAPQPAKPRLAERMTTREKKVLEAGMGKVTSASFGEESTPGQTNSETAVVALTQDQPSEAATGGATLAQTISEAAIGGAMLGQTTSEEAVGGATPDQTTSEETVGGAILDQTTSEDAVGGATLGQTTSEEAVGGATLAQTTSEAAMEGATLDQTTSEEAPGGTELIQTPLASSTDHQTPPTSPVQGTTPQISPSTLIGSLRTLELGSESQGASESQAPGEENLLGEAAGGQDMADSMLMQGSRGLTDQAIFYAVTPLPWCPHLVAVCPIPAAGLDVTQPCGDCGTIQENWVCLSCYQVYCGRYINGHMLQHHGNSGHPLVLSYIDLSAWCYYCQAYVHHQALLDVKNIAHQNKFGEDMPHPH

Row | Structure (SMILES) | pIC50 (HDAC6) | EC50 (KARN cells (Jurkat 2C4); [1]) [nM] | EC50 (KARN cells (Jurkat 2C4); [2]) [nM]
1 | CN(C)c1ccc2cc(-c3cnc([C@@H](N)CCCCCC(=O)c4ncco4)[nH]3)ccc2n1 [Example 18] | < 5.82 | 93 | 130
2 | CN(C)C1(C(=O)N[C@@H](CCCCCC(=O)c2ccon2)c2ncc(-c3ccccc3F)[nH]2)CC1 [Example 62] | < 6.05 | 50 | 100
3 | N[C@@H](CCCCCC(=O)c1ncco1)c1ncc(-c2cc(OC(F)(F)F)ccc2F)[nH]1 [Example 142, (7S)-7-amino-7-{5-[2-fluoro-5-(trifluoromethoxy)phenyl]-1H-imidazol-2-yl}-1-(1,3-oxazol-2-yl)heptan-1-one] | < 6.05 | 1200 | 270
4 | CN(C)CC(=O)N[C@@H](CCCCCC(=O)c1ncco1)c1[nH]c(-c2ccc(F)cc2)nc1Cl [Example 90] | 4.59 | 14 | 34
5 | COCC(=O)N[C@@H](CCCCCC(=O)c1ncco1)c1ncc(-c2cc3ccccc3nc2OC)[nH]1 [Example 147, 2-methoxy-N-[(1S)-1-[5-(2-methoxyquinolin-3-yl)-1H-imidazol-2-yl]-7-(1,3-oxazol-2-yl)-7-oxoheptyl]acetamide] | 4.82 | 50 | 490
6 | COc1cc2c(ccc(=O)n2C)cc1-c1cnc([C@@H](N)CCCCCC(=O)c2ccon2)[nH]1 [Example 35, (S)-6-(2-(1-amino-7-(isoxazol-3-yl)-7-oxoheptyl)-1H-imidazol-5-yl)-7-methoxy-1-methylquinolin-2(1H)-one] | 4.82 | 72 | 50
7 | O=C(CCCCC[C@H](NC(=O)c1cncs1)c1nc(-c2ccc(F)cc2)c[nH]1)c1ncco1 [Example 2, (S)-N-(1-(4-(4-fluorophenyl)-1H-imidazol-2-yl)-7-(oxazol-2-yl)-7-oxoheptyl)thiazole-5-carboxamide] | 4.35 | 44 | 97
8 | CN(C)CC(=O)N[C@@H](CCCCCC(=O)c1ccon1)c1nc(-c2ccccc2F)c[nH]1 [Example 47] | 5.04 | 3.7 | 10
9 | Cn1cc2cc(-c3cc([C@@H](N)CCCCCC(=O)c4ccon4)no3)ccc2n1 [Example 126, (7S)-7-amino-1-isoxazol-3-yl-7-[5-(2-methyl-2H-indazol-5-yl)isoxazol-3-yl]heptan-1-one] | < 6.05 | 170 | 250
10 | COc1nc(C)ccc1-c1c[nH]c([C@@H](N)CCCCCC(=O)c2ncco2)n1 [Example 11] | 4.35 | 620 | 670
11 | N[C@@H](CCCCCC(=O)c1ncco1)c1ncc(-c2cc(OC3CCC3)ccc2F)[nH]1 [Example 130, (7S)-7-amino-7-{5-[5-(cyclobutyloxy)-2-fluorophenyl]-1H-imidazol-2-yl}-1-(1,3-oxazol-2-yl)heptan-1-one] | < 6.05 | 1600 | 4600
12 | CCN1CCC2(CC1)C[C@@H]2C(=O)N[C@@H](CCCCCC(=O)c1ccon1)c1cc(-c2ccccc2F)on1 [Example 175, (1S)-6-ethyl-N-{(1S)-1-[5-(2-fluorophenyl)isoxazol-3-yl]-7-isoxazol-3-yl-7-oxoheptyl}-6-azaspiro[2.5]octane-1-carboxamide] | – | 13 | 19
13 | O=C(CCCCC[C@H](NC(=O)[C@H]1CC12CCOCC2)c1nc(-c2ccc(F)cc2)c[nH]1)c1ncco1 [Example 5, N-((S)-1-(4-(4-fluorophenyl)-1H-imidazol-2-yl)-7-(oxazol-2-yl)-7-oxoheptyl)-6-oxaspiro[2.5]octane-1-carboxamide] | 4.35 | 63 | 130
14 | NC(CCCCCC(=O)c1ccon1)c1cnn(-c2ccc(F)cc2)n1 (centres unmarked) [Example 123, 7-amino-7-[2-(4-fluorophenyl)-2H-1,2,3-triazol-4-yl]-1-isoxazol-3-ylheptan-1-one] | 4.35 | – | –
15 | CN1CCC(C(=O)N[C@@H](CCCCCC(=O)c2ncco2)c2nc(-c3ccc(F)cc3)c[nH]2)CC1 [Example 3, (S)-N-(1-(4-(4-fluorophenyl)-1H-imidazol-2-yl)-7-(oxazol-2-yl)-7-oxoheptyl)-1-methylpiperidine-4-carboxamide] | 4.35 | 18 | 26
16 | N#Cc1cnc(-c2cnc([C@@H](N)CCCCCC(=O)c3ncco3)[nH]2)cn1 [Example 132, 5-{2-[(1S)-1-amino-7-(1,3-oxazol-2-yl)-7-oxoheptyl]-1H-imidazol-5-yl}pyrazine-2-carbonitrile] | – | 25000 | 30000
17 | O=C(N[C@@H](CCCCCC(=O)c1nccs1)c1nc(-c2ccc(F)cc2)c[nH]1)c1cncs1 [Example 7, (S)-N-(1-(4-(4-fluorophenyl)-1H-imidazol-2-yl)-7-oxo-7-(thiazol-2-yl)heptyl)thiazole-5-carboxamide] | 4.35 | 23 | 8400

Row | Structure (SMILES) | pIC50 (HDAC6) | EC50 (KARN cells (Jurkat 2C4); [1]) [nM] | EC50 (KARN cells (Jurkat 2C4); [2]) [nM]
18 | Cc1ccc2cc(-c3c[nH]c([C@H](CCCCCC(=O)c4ccon4)NC(=O)C4CN(C)C4)n3)ccc2n1 [Example 43] | 5.74 | 8.5 | 14
19 | CN1CC(C(=O)N[C@@](C)(CCCCCC(=O)c2ccon2)c2ncc(-c3ccccc3F)[nH]2)C1 [Example 184, (S)-N-(2-(5-(2-fluorophenyl)-1H-imidazol-2-yl)-8-(isoxazol-3-yl)-8-oxooctan-2-yl)-1-methylazetidine-3-carboxamide] | < 6.05 | 56 | 57
20 | COc1nc2cnccc2cc1-c1c[nH]c([C@@H](N)CCCCCC(=O)c2ncco2)n1 [Example 13] | 4.35 | 94 | 140
21 | CCN1CCC2(CC1)C[C@@H]2C(=O)N[C@@H](CCCCCC(=O)c1ccon1)c1cc(-c2ccc3nn(C)cc3c2)on1 [Example 176, (1S)-6-ethyl-N-{(1S)-7-isoxazol-3-yl-1-[5-(2-methyl-2H-indazol-5-yl)isoxazol-3-yl]-7-oxoheptyl}-6-azaspiro[2.5]octane-1-carboxamide] | – | 14 | 13
22 | COc1nc2ccccc2cc1-c1cnc([C@H](CCCCCC(=O)c2ncco2)NC(=O)C(C)(F)F)[nH]1 [Example 148, 2,2-difluoro-N-[(1S)-1-[5-(2-methoxyquinolin-3-yl)-1H-imidazol-2-yl]-7-(1,3-oxazol-2-yl)-7-oxoheptyl]propanamide] | 5.47 | 54 | 450
23 | N[C@@H](CCCCCC(=O)c1ccon1)c1ccn(-c2ccc(F)cc2)n1 [Example 120, (7S)-7-amino-7-[1-(4-fluorophenyl)-1H-pyrazol-3-yl]-1-isoxazol-3-ylheptan-1-one] | 4.35 | – | –
24 | Cn1c(=O)ccc2cc(-c3c[nH]c([C@@H](N)CCCCCC(=O)c4ccon4)n3)ccc21 [Example 32, (S)-6-(2-(1-amino-7-(isoxazol-3-yl)-7-oxoheptyl)-1H-imidazol-4-yl)-1-methylquinolin-2(1H)-one] | 4.82 | 26 | 35
25 | CN1CCC2(CC1)CC(C(=O)N[C@@H](CCCCCC(=O)c1ccon1)c1cc(-c3ccc4nn(C)cc4c3)on1)=NO2 [Example 177, N-{(1S)-7-isoxazol-3-yl-1-[5-(2-methyl-2H-indazol-5-yl)isoxazol-3-yl]-7-oxoheptyl}-8-methyl-1-oxa-2,8-diazaspiro[4.5]dec-2-ene-3-carboxamide] | – | 33 | 55
26 | N#Cc1cncc(-c2cnc([C@@H](N)CCCCCC(=O)c3ncco3)[nH]2)n1 [Example 133, 6-{2-[(1S)-1-amino-7-(1,3-oxazol-2-yl)-7-oxoheptyl]-1H-imidazol-5-yl}pyrazine-2-carbonitrile] | – | 23000 | 25000
27 | COc1cc2nc(C)ccc2cc1-c1c[nH]c([C@@H](N)CCCCCC(=O)c2ncco2)n1 [Example 12, (S)-7-amino-7-(5-(7-methoxy-2-methylquinolin-6-yl)-1H-imidazol-2-yl)-1-(oxazol-2-yl)heptan-1-one] | 5.08 | 66 | 80
28 | COc1ncccc1-c1cnc([C@H](CCCCCC(=O)c2ncco2)NC(=O)C2CN(C)C2)o1 (stereo in doubt) [Example 104, N-(1-(5-(2-methoxypyridin-3-yl)oxazol-2-yl)-7-(oxazol-2-yl)-7-oxoheptyl)-1-methylazetidine-3-carboxamide] | < 6.05 | 40 | 44
29 | CN1CC(C(=O)N[C@@H](CCCCCC(=O)c2ccon2)c2nc(Cl)c(-c3ccc(F)cc3)[nH]2)C1 [Example 196, (S)-N-(1-(4-chloro-5-(4-fluorophenyl)-1H-imidazol-2-yl)-7-(isoxazol-3-yl)-7-oxoheptyl)-1-methylazetidine-3-carboxamide 2,3-dihydroxysuccinate] | 5.34 | 3.8 | 7.5
30 | Cc1cc(C(=O)CCCCC[C@H](NC(=O)C2CN(C)C2)c2nc(-c3ccccc3F)c[nH]2)no1 [Example 59] | 4.35 | – | –
31 | Cc1coc(C(=O)CCCCC[C@H](NC(=O)C2CCN(C)CC2)c2nc(-c3ccc(F)cc3)c[nH]2)n1 [Example 8, (S)-N-(1-(4-(4-fluorophenyl)-1H-imidazol-2-yl)-7-(4-methyloxazol-2-yl)-7-oxoheptyl)-1-methylpiperidine-4-carboxamide] | 4.82 | – | –
32 | N[C@@H](CCCCCC(=O)c1ncco1)c1ncc(-c2ccc(-c3cnccn3)cc2)[nH]1 [Example 20] | 4.35 | 450 | 340
33 | CC(C(=O)N[C@@H](CCCCCC(=O)c1ccon1)c1ncc(-c2ccccc2F)[nH]1)N(C)C (some centres unmarked) [Example 61] | < 6.05 | 3.6 | 5.8
